The text below walks through data of patent US12421253B2 (Mirati Therapeutics, Inc., priority 2020, dated 2025).

In one assay the target is T1, KRas^G12D (Homo sapiens, UniProt P01116, G12D).
T1 construct: […]; biotin (biotinylated); purchased Accelegan Inc
Kind of assay: KRas binding assay (TR-FRET displacement of Cy5 labelled tracer). On the technique in general: In TR-FRET formats the signal depends on donor and acceptor labels being close together.

Another assay concerns the target T2, KRas^G12R (Homo sapiens, UniProt P01116, G12R).
T2 construct: […]; biotin (biotinylated); purchased Accelegan Inc
The assay is described as above.

For another assay, the target named is T3, KRas^G12V (Homo sapiens, UniProt P01116, G12V).
T3 construct: […]; biotin (biotinylated); purchased Accelegan Inc
Described as above.

The next assay has as its system ASPC1 cells, pERK. Briefly: Inhibition of KRas phosphorylation of ERK (Cisbio HTRF Advanced pERK assay). To be noted: Homo sapiens, ASPC1, 3 h, AsPC-1 cells, read-out: Inhibition (HTRF IC50 nM) of KRas-mediated Phosphorylation of ERK, AsPC-1. It is filed as cell-based. As for the experimental part:
(§1) Inhibition of KRas Phosphorylation of ERK (HTRF) by Exemplary Compounds of Formula (I)
(§2) Cisbio HTRF Advanced pERK Assay Catalog #64AERPEH
(§3) • Day 1: Seed 6,000 cells/well −25 μl/well in 384-well white solid bottom plate; RPM1_10% FBS. […] To harvest cells from flask using 0.05% Trypsin/EDTA solution. Add 10 mL of media to stop trypsinizing. Pipette the cells into a conical bottom 50 mL centrifuge tube and centrifuge 5 min×1000 rpm. • 2. Re-suspend the cell pellet in media, take a cell count, and then adjust the cell density using fresh media. • 3. Seed 6,000 cells into cell culture plate with […]. The • 4. Incubate cell plate overnight in a 37° C., 5% CO2 incubator. Compound Titrations • 1. Use Tecan to complete the compound addition. Compounds start from 10 uM top, 3-fold dilution, and 10 doses. The final DMSO concentration is 0.8%. Dispensed 0.2 uM Trametinib as Min control. • 2. Incubate cell plate for 3 hrs in the incubator. Detection with Cisbio pERK HTRF Kit • 1. Dilute 1 volume of 4× lysis buffer with 3 volumes of deionized water. Then, add 100× the blocking reagent. Keep lysis buffer on the ice. • 2. At the end of the compound treatment, flick-off the media. • 3. Add 35 μL of lysis buffer per well using a Multidrop Combi. Then place on a plate agitator shaking at 300 rpm at 4° C. for 40 mins. • 4. Make up the HTRF antibody buffer. For each assay plate, mix 50 μL of d2-conjugate antibody with 950 μL of detection buffer. Similarly, mix 50 μL of Cryptate antibody with 950 μL of detection buffer. Then mix the two diluted antibodies together. • 5. Dispense 3.4 μL the antibody buffer to wells of an empty assay plate. Seal the plate and centrifuge plate 30 sec×1000 rpm. • 6. At the end of the 4° C. lysis, centrifuge the lysate plates 3 mins×1500 rpm. • 7. Use the Bravo to transfer 13.6 μL of lysate from cell culture plate to assay plate. Then incubate assay plate for 2 hrs at room temperature. • 8. At the end of incubation, read plate on the Envision after centrifuging plate 30 sec×1000 rpm.

The test system of another assay is H727 cells, pERK. Described as above. The format is cell-based. To be noted: Homo sapiens, NCI-H727, 3 h, read-out: Inhibition (HTRF IC50 nM) of KRas-mediated Phosphorylation of ERK, H727. The procedure: as §1, §2, §3
For the next assay, the target named is T4, KRas^WT (Homo sapiens, UniProt P01116).
T4 construct: […]; biotin (biotinylated); purchased Accelegan Inc
Kind of assay: KRas binding assay (TR-FRET displacement of Cy5 labelled tracer).

A further assay has as its target T5, KRas^G12A (Homo sapiens, UniProt P01116, G12A).
T5 construct: […]; biotin (biotinylated); purchased Accelegan Inc
Described as above.

The next assay has as its target T6, KRas^G12S (Homo sapiens, UniProt P01116, G12S).
T6 construct: […]; biotin (biotinylated); purchased Accelegan Inc
The assay is described as above.

The target in a further assay is KRas^G12C (Homo sapiens, UniProt P01116, G12C). Briefly: biochemical.
The next assay deals with KRas^G13D (Homo sapiens, UniProt P01116, G13D). Kind of assay: biochemical.
The target of the next assay is KRas^Q61H (Homo sapiens, UniProt P01116, Q61H). Briefly: biochemical.
KRas^Q61H, sequence (P01116 1-169 isoform P01116-2 Q61H): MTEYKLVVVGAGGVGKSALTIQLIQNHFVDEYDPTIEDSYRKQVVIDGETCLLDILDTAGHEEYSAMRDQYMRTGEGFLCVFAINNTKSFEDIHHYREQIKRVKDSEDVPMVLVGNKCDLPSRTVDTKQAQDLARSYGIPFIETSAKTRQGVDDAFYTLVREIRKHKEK

T5 sequence (P01116 1-169 isoform P01116-2 G12A): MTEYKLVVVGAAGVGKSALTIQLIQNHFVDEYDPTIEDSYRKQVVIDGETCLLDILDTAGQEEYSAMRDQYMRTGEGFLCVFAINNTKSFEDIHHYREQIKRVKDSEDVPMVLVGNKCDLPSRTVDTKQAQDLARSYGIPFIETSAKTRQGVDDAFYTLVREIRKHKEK
T2 sequence (P01116 1-169 isoform P01116-2 G12R): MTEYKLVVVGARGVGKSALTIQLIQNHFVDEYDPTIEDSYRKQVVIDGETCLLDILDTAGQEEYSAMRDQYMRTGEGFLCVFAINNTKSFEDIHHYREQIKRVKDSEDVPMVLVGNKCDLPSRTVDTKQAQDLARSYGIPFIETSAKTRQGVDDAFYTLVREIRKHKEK
T1 sequence (P01116 1-169 isoform P01116-2 G12D): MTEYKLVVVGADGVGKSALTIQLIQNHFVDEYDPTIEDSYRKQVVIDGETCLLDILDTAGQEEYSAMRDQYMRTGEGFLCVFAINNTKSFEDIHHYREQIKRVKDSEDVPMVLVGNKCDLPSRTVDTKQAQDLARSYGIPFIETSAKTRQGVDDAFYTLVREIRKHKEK
T3 sequence (P01116 1-169 isoform P01116-2 G12V): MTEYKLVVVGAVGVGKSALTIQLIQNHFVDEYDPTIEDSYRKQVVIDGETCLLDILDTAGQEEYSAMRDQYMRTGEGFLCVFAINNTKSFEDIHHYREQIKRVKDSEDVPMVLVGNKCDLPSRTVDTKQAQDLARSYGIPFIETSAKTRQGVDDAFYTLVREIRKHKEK
KRas^G13D, sequence (P01116 1-169 isoform P01116-2 G13D): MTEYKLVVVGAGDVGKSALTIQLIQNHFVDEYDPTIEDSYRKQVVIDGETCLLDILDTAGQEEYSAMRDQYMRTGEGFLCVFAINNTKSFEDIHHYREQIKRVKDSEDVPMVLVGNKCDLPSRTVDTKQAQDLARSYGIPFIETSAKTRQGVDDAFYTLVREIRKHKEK
KRas^G12C, sequence (P01116 1-169 isoform P01116-2 G12C): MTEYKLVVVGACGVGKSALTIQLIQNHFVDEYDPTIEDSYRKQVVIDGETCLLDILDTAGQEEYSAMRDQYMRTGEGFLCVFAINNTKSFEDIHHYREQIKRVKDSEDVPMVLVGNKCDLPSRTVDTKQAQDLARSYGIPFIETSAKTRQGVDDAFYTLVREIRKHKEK
T6 sequence (P01116 1-169 isoform P01116-2 G12S): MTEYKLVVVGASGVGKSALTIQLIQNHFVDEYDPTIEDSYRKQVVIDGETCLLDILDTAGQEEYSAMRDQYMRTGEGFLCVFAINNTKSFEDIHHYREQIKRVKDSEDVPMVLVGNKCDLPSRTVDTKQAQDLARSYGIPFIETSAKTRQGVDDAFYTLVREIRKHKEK
T4 sequence (P01116 1-169 isoform P01116-2): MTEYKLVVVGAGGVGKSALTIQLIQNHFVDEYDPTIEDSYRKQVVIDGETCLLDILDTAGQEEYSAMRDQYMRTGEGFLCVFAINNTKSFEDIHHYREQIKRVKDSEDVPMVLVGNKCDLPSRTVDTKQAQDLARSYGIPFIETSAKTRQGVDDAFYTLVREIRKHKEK
Method for KRas^G12A: (§4) The ability of a compound to bind to KRas was measured using a TR-FRET displacement assay. […] After a 60-minute incubation at room temperature, the reaction was measured using a BMG LABTECH CLARIO star Plus via TR-FRET. […] The POC values were fit to a 4-parameter IC50 equation and the IC50 value reported.
Method for KRas^G12C: as §4
Method for KRas^G12D: as §4
Method for KRas^G12R: as §4
Method for KRas^G12S: as §4
Method for KRas^G12V: as §4
Method for KRas^G13D: as §4
Method for KRas^Q61H: as §4
Method for KRas^WT: as §4

Regarding `Cc1cc2[nH]ncc2c(N2CCc3c(nc(OCC45CCCN4CCC5)nc3N3CCC[C@@](C)(O)C3)C2)c1C` [Example 15, (R)-1-(7-(5,6-dimethyl-1H-indazol-4-yl)-2-((hexahydro-1H-pyrrolizin-7a-yl)methoxy)-5,6,7,8-tetrahydropyrido[3,4-d]pyrimidin-4-yl)-3-methylpiperidin-3-ol], the IC50 (usually the concentration that inhibits the measured activity by half) on KRas^G12D was 0.126 µM; on KRas^G12R, 0.144 µM; on KRas^G12V, 0.103 µM; in the assay with ASPC1 cells, pERK it was 1110 nM; in the assay with H727 cells, pERK, 3190 nM.
Turning to `CCc1cccc2cccc(N3CCc4c(nc(OCC56CCCN5CCC6)nc4NCCS(=O)(=O)N=S(C)(C)=O)C3)c12` [Example 165, N-(dimethyl(oxo)-16-sulfaneylidene)-2-((7-(8-ethylnaphthalen-1-yl)-2-((tetrahydro-1H-pyrrolizin-7a(5H)-yl)methoxy)-5,6,7,8-tetrahydropyrido[3,4-d]pyrimidin-4-yl)amino)ethane-1-sulfonamide], the IC50 on KRas^WT is 5.92 µM; on KRas^G12A, 8.67 µM; at KRas^G12D, 14.2 µM; at KRas^G12R it was 7.47 µM; on KRas^G12S, 8.07 µM; on KRas^G12V, 4.34 µM. The results for the IC50 against KRas^G12C, at KRas^G13D and on KRas^Q61H were 3.87 µM, 6.71 µM and 6.55 µM, respectively.
For `CCc1cccc2cccc(N3CCc4c(nc(OCC56CCCN5CCC6)nc4N4CCCC(c5nnc(CO)n5C)C4)C3)c12` (stereo not shown) [Example 166, (5-(1-(7-(8-ethylnaphthalen-1-yl)-2-((tetrahydro-1H-pyrrolizin-7a(5H)-yl)methoxy)-5,6,7,8-tetrahydropyrido[3,4-d]pyrimidin-4-yl)piperidin-3-yl)-4-methyl-4H-1,2,4-triazol-3-yl)methanol], the IC50 came to 4.81 µM at KRas^WT; 5.51 µM on KRas^G12A; 9.85 µM at KRas^G12D; 4.65 µM at KRas^G12R; 5.13 µM at KRas^G12S; 7.32 µM at KRas^G12V. For the same molecule, the IC50 at KRas^G12C turned out to be 4.15 µM; at KRas^G13D, 4.8 µM; against KRas^Q61H it was 4.58 µM.
With `CCc1cccc2cccc(N3CCc4c(nc(OCC56CCCN5CCC6)nc4NC4CCc5ncsc5C4)C3)c12` (stereo not shown) [Example 168, N-(7-(8-ethylnaphthalen-1-yl)-2-((tetrahydro-1H-pyrrolizin-7a(5H)-yl)methoxy)-5,6,7,8-tetrahydropyrido[3,4-d]pyrimidin-4-yl)-4,5,6,7-tetrahydrobenzo[d]thiazol-6-amine], the IC50 came to 15 µM on KRas^WT; 11.1 µM at KRas^G12A; 26.4 µM at KRas^G12D; 4.95 µM on KRas^G12R; 9.63 µM on KRas^G12S; 7.12 µM at KRas^G12V. Moreover, the IC50 at KRas^G12C was 5.39 µM; on KRas^G13D, 21.9 µM; against KRas^Q61H it was 14.6 µM.
In the case of `CCc1cccc2cccc(N3CCc4c(nc(OCC56CCCN5CCC6)nc4NC4CC5CC5C4)C3)c12` (stereo not shown) [Example 170, N-(bicyclo[3.1.0]hexan-3-yl)-7-(8-ethylnaphthalen-1-yl)-2-((tetrahydro-1H-pyrrolizin-7a(5H)-yl)methoxy)-5,6,7,8-tetrahydropyrido[3,4-d]pyrimidin-4-amine], the IC50 at KRas^WT is 17 µM; on KRas^G12A it was 27.9 µM; on KRas^G12D it was 25 µM; at KRas^G12R, 11.9 µM; on KRas^G12S it was 16.4 µM; on KRas^G12V, 5.87 µM. Besides, the results for the IC50 against KRas^G12C, against KRas^G13D and against KRas^Q61H were 15.1 µM, 16.4 µM and 17 µM, respectively.
`CCc1c(F)ccc2cc(O)cc(N3CCc4c(nc(OC[C@@]56CCCN5C[C@H](F)C6)nc4N4CC5CCC(C4)O5)C3)c12` [Example 176, 4-(4-(8-oxa-3-azabicyclo[3.2.1]octan-3-yl)-2-(((2R,7aS)-2-fluorotetrahydro-1H-pyrrolizin-7a(5H)-yl)methoxy)-5,8-dihydropyrido[3,4-d]pyrimidin-7(6H)-yl)-5-ethyl-6-fluoronaphthalen-2-ol]: the IC50 was 0.078 µM at KRas^G12D; no more than 0.002 µM at KRas^G12R; 0.011 µM at KRas^G12V; 5940 nM with ASPC1 cells, pERK; 984 nM with H727 cells, pERK.
Consider `CCc1c(F)ccc2cc(O)cc(N3CCc4c(nc(OC[C@@]56CCCN5C[C@H](F)C6)nc4N4C[C@H](O)C[C@@H](C(N)=O)C4)C3)c12` [Example 186, (3R,5R)-1-(7-(8-ethyl-7-fluoro-3-hydroxynaphthalen-1-yl)-2-(((2R,7aS)-2-fluorohexahydro-1H-pyrrolizin-7a-yl)methoxy)-5,6,7,8-tetrahydropyrido[3,4-d]pyrimidin-4-yl)-5-hydroxypiperidine-3-carboxamide], for which the IC50 was no more than 0.002 µM on KRas^G12D; no more than 0.002 µM on KRas^G12R; no more than 0.002 µM at KRas^G12V; 4360 nM with ASPC1 cells, pERK; 2670 nM in the assay on H727 cells, pERK.
`CCc1c(F)ccc2cc(O)cc(N3CCc4c(nc(OC[C@@]56CCCN5C[C@H](F)C6)nc4N4C[C@H](O)C[C@H](C(N)=O)C4)C3)c12` [Example 187, (3S,5R)-1-(7-(8-ethyl-7-fluoro-3-hydroxynaphthalen-1-yl)-2-(((2R,7aS)-2-fluorohexahydro-1H-pyrrolizin-7a-yl)methoxy)-5,6,7,8-tetrahydropyrido[3,4-d]pyrimidin-4-yl)-5-hydroxypiperidine-3-carboxamide]: the IC50 at KRas^G12D is 0.004 µM; on KRas^G12R, no more than 0.002 µM; at KRas^G12V it was no more than 0.002 µM; in the assay with ASPC1 cells, pERK, 5330 nM; with H727 cells, pERK it was 1320 nM.
Regarding `C[C@@]1(O)CCCN(c2nc(OCC34CCCN3CCC4)nc3c2CCN(c2cc(O)cc(Cl)c2C2CC2)C3)C1` [Example 204, (R)-1-(7-(3-chloro-2-cyclopropyl-5-hydroxyphenyl)-2-((hexahydro-1H-pyrrolizin-7a-yl)methoxy)-5,6,7,8-tetrahydropyrido[3,4-d]pyrimidin-4-yl)-3-methylpiperidin-3-ol], the IC50 on KRas^G12D was 0.006 µM; on KRas^G12R it was 0.009 µM; at KRas^G12V, 0.006 µM; in the assay with ASPC1 cells, pERK it was 1530 nM; in the assay on H727 cells, pERK, 1670 nM.
With `CN1CCC[C@H]1COc1nc2c(c(N3CCOCC(C)(O)C3)n1)CCN(c1cccc3cccc(Cl)c13)C2` (stereo partly drawn) [Example 205, 4-[7-(8-chloro-1-naphthyl)-2-[[(2S)-1-methylpyrrolidin-2-yl]methoxy]-6,8-dihydro-5H-pyrido[3,4-d]pyrimidin-4-yl]-6-methyl-1,4-oxazepan-6-ol], the IC50 at KRas^G12D was 4.69 µM; on KRas^G12R, 6.43 µM; at KRas^G12V it was 4.7 µM; in the assay on ASPC1 cells, pERK, no less than 10000 nM; in the assay with H727 cells, pERK it was no less than 10000 nM.
Consider `CN1CCC[C@H]1COc1nc2c(c(N3C[C@@H]4C(=O)NC(=O)[C@@H]4C3)n1)CCN(c1cccc3cccc(Cl)c13)C2` [Example 206, (3aS,6aR)-5-[7-(8-chloro-1-naphthyl)-2-[[(2S)-1-methylpyrrolidin-2-yl]methoxy]-6,8-dihydro-5H-pyrido[3,4-d]pyrimidin-4-yl]-3a,4,6,6a-tetrahydropyrrolo[3,4-c]pyrrole-1,3-dione], for which the IC50 was 0.932 µM on KRas^G12D; 1.62 µM at KRas^G12R; 0.833 µM at KRas^G12V; no less than 10000 nM in the assay on ASPC1 cells, pERK; no less than 10000 nM with H727 cells, pERK.
Regarding `CN1CCC[C@H]1COc1nc2c(c(N3CCCC4(CC(=O)N4)C3)n1)CCN(c1cccc3cccc(Cl)c13)C2` (stereo partly drawn) [Example 207, 8-[7-(8-chloro-1-naphthyl)-2-[[(2S)-1-methylpyrrolidin-2-yl]methoxy]-6,8-dihydro-5H-pyrido[3,4-d]pyrimidin-4-yl]-1,8-diazaspiro[3.5]nonan-2-one], the IC50 on KRas^G12D is 0.765 µM; on KRas^G12R, 0.553 µM; on KRas^G12V, 0.404 µM; with ASPC1 cells, pERK, no less than 10000 nM; in the assay on H727 cells, pERK, no less than 10000 nM.
